# Assay results as given in patent US11932589B2, “Hydrofluoroolefins and methods of using same” (3M INNOVATIVE PROPERTIES COMPANY, priority 2019, dated 2024).
# Experiments:
# Assay type in all cases: physicochemical
# [1] = Flash point, small scale closed-cup apparatus (ASTM D-3278-96 e-1); conditions: closed-cup ASTM method; no flash point = non-flammable
# Text: The acetate was thermally decomposed and the title product separated by fractional distillation. The structure was verified by GC-MS and NMR.
# [2] = Largest Soluble Hydrocarbon (LSH) test; conditions: hydrofluoroolefin:hydrocarbon about 1:1 to 1:2 by weight, longest hydrocarbon compatible without haze
# Experimental: Largest Soluble Hydrocarbon (LSH): The LSH of each hydrofluoroolefin compound was determined by mixing the compound with hydrocarbons of varying molecular weight (CnH2n+2, where n=9 to 24) in a hydrofluoroolefin:hydrocarbon ratio of about 1:1 to 1:2 by weight at room temperature (25° C.) and at 50° C. […] A larger value of n is interpreted herein to indicate a greater ability of the hydrofluoroolefin to clean hydrocarbons.
# [3] = Open pan exposure to direct flame
Compound,Flash point [1],LSH (n in CnH2n+2) ([2]; 25° C.),LSH (n in CnH2n+2) ([2]; 50° C.),Burning in an open pan upon exposure to direct flame [3]
"C=CC(F)(C(F)C(F)(F)F)C(F)(F)F (stereo not drawn) [Example 1, 3,4,5,5,5-pentafluoro-3-(trifluoromethyl)pent-1-ene]",no flash point,13,14,
"C=C(C)C1C(F)C(F)(F)C(F)(F)C1(F)F (stereo not drawn) [Example 4, 1,1,2,2,3,3,4-heptafluoro-5-isopropenyl-cyclopentane]",,17,21,not observed to burn
